# Source: patent US20040235794A1, “Remedies for respiratory diseases comprising sphingosine-1-phosphate receptor controller” (priority 2001, published 2004)
# Tests used:
# anesthetized guinea pig [1] = assay: Airway resistance of anesthetized guinea pig after inhalation (modified Konzett and Rossler method); type: in vivo; details: for increase of airway resistance: inhalation for five minutes, 0.01 to 1 mg/mL, S1P effect at 0.1 to 1 mg/mL
# Procedure: (§1) The measurement of guinea pig airway resistance was carried out by the modified Konzett and Rossler method (Naunyn-Schmied. Arch. Exp. Path. Pharmak. 195, 71- ). Male Hartley guinea pigs (5 to 7 weeks-old, 300 to 500 g body weight in use) were anesthetized by pentobarbital (50 mg/kg intraabdominal dosage), and fixed at dorsal position. Then, trachea and jugular were cannulated. Airway was managed by a respirator (5 mL/stroke, 60 strokes/min) and air road was diverged with a T-tube and connected to broncho-spasm-transducer and airway resistance was measured. To guinea pigs, gallamine (1 mg/kg, i.v.) was administered and immobilized. In this connection, acetylcholine was administered (30 μg/kg, i.v.) before inhalation of a compound in order to ascertain that that there was no considerable difference in sensitivity of transient airway constriction between individual animals, and then, animals which have coordinative sensitivity were used. S1P (Alexis) was vaporized and inhaled with supersonic wave type nebulizer (Omron NE U-07) for five minutes (Jpn. J. Pharm. 50, 445-466 (1989)). Complete obstruction (total area) was calculated as area as follows; deduct the value of airway resistance at startup of S1P inhalation from the value of airway resistance that is obtained at the time of clamping the tube of tracheal cannula side, and obtained value is multiplied by 10 minutes (5 minutes for inhalation and 5 minutes for post-inhalation). […] S1P (0.01 to 1 mg/mL) was inhaled to anesthetized guinea pig and airway resistance was measured. The reference example was carried out using 10% meylon and sphingosine (Matreya, 0.01 to 1 mg/mL) with method described in example 1.
# anesthetized guinea pig [2] = assay: Airway resistance of guinea pig after intravenous administration; type: in vivo; details: injected intravenously
# Procedure: Male guinea pigs (Standard Hartley, 5 to 7 weeks-old, 300 to 500 g body weight in use) were anesthetized by pentobarbital (50 mg/kg intraabdominal dosage), and fixed at dorsal position. Then, trachea and jugular were cannulated. S1P was injected intravenously, and airway resistance was measured as described in Example 1.
# [3] = tested on: isolated trachea of guinea pig; assay: Constriction of isolated trachea of guinea pig (magnus tube)
# Procedure: The trachea of euthanized male Hartley ginea pig was removed and immersed quickly in Krebs-Henseleit solution (112 mmol/L sodium chloride, 5.9 mmol/L potassium chloride, 2.0 mmol/L calcium chloride, 1.2 mmol/L magnesium chloride, 1.2 mmol/L monobasic sodium phosphate, 25.0 mmol/L sodium hydrogen carbonate NaHCO3, 11.5 mmol/L glucose, 4° C.). A removed tissue was hooked as helical sample in magnus tube (volume: 10 mL) filled with Krebs-Henseleit solution (37±1° C., [aerated with 95% O2+5% CO2]). After stabilizing for 60 minutes in tensioned condition with 1 g, contraction was measured by recorder from force displacement transducer via distortion amplifier. The contraction of control was obtained by high concentration solution of potassium chloride (sodium chloride in Krebs-Henseleit solution was all exchanged to potassium chloride), or by stimulation with leukotriene D4 (LTD4) or histamine. After contraction by S1P, EDG-5 antagonist was added. Washing process of a specimen was repeated just in time, after hooked in magnus tube.
# [4] = tested on: Normal human airway smooth muscle cells; assay: DNA synthesis (BrdU incorporation) of human airway smooth muscle cells induced by S1P; type: cell-based
# Procedure: Normal human airway smooth muscle cells (BMSC; BioWhittaker) were cultured using MEM-A medium (GIBCO) containing 10% FBS (fetal calf serum), gentamicin (50 μg/mL), amphotericin B (50 ng/mL), and human bFGF, human insulin for 24 hours and deoxybromouridine (BrdU) was added.
# Normal human airway smooth muscle cells (BMSC; BioWhittaker) were plated in 96 well plate using MEM-α medium containing human insulin at density of 1×10^4 cells/well. After 24 hour incubation, wash 2 times with Hanks solution, and serum-free medium (MEM-α/gentamicin (50 μg/mL), amphotericin B (50 ng/mL)) was added and incubated for 24 hours. S1P was added at the final concentration of 0.03 μM to 10 μM, deoxybromouridine (BrdU) was added at the same time, and incubated for 6 hours, and then the activity of BrdU incorporation was measured. As control, equal volume of physiological salt solution, which is vehicle of S1P, was added.
# Cells were treated with BrdU, and culture supernatant was discarded. 150 μL of Cell fixation·DNA denaturation buffer was added to each well and incubated for 30 minutes. Cell fixation·DNA denaturation buffer was removed and blocking buffer (150 μL) was added. […] After 15 minutes, 25 μL of 2N sulfuric acid was added and absorbance at 450 nm was measured. […]
# anesthetized guinea pig [5] = assay: Effect of pre-treatment on increase of airway resistance induced by S1P; type: in vivo; details: pretreatment 100 μg/mL, i.v.
# Procedure: as §1, with “S1P (Alexis) was vaporized and inhaled with supersonic wave type nebulizer (Omron NE U-07) for five minutes (Jpn. J. Pharm. 50, 445-466 (1989)).” left out, “The reference example was carried out using 10% meylon and sphingosine (Matreya, 0.01 to 1 mg/mL) with method described in example 1.” left out
# human EDG-1 = molecular target: T1, human EDG-1 (Homo sapiens, UniProt P21453); assay: Antagonistic activity for EDG-1 (S1P-induced intracellular calcium, CHO cells); type: cell-based; details: CHO cells expressing human EDG-1, S1P 100 nM
# T1 construct: expressed in transfected cells; host or cells: CHO inferred from 'method as in EDG-5'; the EDG-1 sentence says only 'cells'
# T1 sequence (P21453 whole entry): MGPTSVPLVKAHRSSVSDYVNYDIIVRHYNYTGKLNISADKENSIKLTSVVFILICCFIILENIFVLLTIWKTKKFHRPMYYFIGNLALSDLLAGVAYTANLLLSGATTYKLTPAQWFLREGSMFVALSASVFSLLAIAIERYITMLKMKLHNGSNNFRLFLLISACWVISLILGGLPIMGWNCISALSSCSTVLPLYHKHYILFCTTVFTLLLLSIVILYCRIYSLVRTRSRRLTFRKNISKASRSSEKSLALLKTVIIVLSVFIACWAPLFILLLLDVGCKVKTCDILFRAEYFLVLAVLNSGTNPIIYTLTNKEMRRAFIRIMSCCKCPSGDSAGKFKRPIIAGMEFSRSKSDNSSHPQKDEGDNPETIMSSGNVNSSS
# EDG-3 = molecular target: T2, EDG-3 (Homo sapiens, UniProt Q99500); assay: Antagonistic activity for EDG-3 (S1P-induced intracellular calcium, CHO cells); type: cell-based; details: CHO cells expressing EDG-3, S1P 100 nM
# T2 construct: expressed in transfected cells; host or cells: CHO inferred from 'method as in EDG-5'
# T2 sequence (Q99500 whole entry): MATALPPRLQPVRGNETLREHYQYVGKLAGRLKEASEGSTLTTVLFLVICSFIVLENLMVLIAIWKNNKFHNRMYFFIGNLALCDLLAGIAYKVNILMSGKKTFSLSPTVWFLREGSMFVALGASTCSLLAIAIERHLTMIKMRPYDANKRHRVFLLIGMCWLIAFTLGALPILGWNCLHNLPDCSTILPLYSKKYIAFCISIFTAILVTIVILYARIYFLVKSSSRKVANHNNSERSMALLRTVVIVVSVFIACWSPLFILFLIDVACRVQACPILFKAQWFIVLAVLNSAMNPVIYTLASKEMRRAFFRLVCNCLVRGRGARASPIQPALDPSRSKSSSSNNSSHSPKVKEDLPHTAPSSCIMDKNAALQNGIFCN
# human EDG-5 = molecular target: T3, human EDG-5 (Homo sapiens, UniProt O95136); assay: Antagonistic activity for EDG-5 (S1P-induced intracellular calcium, CHO cells); type: cell-based; details: CHO cells expressing human EDG-5, S1P 100 nM
# T3 construct: expressed in transfected cells; host or cells: CHO cells
# T3 sequence (O95136 whole entry): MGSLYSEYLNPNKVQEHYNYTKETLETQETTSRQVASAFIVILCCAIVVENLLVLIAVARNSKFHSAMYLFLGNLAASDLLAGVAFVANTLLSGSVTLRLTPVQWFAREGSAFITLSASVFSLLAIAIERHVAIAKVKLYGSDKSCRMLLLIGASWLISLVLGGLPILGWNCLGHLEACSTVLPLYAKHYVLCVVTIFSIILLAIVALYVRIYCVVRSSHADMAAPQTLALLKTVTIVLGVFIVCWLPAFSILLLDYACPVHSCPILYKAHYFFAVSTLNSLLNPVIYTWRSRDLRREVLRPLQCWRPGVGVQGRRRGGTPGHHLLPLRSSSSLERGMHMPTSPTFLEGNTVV
# Procedure: Chinese hamster ovary (CHO) cells which expressed excessively human EDG-5 gene were cultured using a Ham's F12 medium (GIBCO BRL) containing 10% FBS (fetal bovine serum), penicillin/streptomycin, and blasticidin (5 μg/ml). Cultured cells were incubated in a Fura2 (5 μM) -AM solution [Ham's F12 medium containing FBS (10%), HEPES buffer (20 mM, pH7.4), and probenecid (2.5 mM)] at 37° C. for 60 minutes. Then washed once with a Hank's solution (2.5 mM) containing probenecid and immersed into the same solution. A plate was set on a fluorescent drug screening system, and measured for 30 seconds with no stimulation, a solution of a compound (dimethyl sulfoxide solution of 1 nM to 10 μM at the final concentration) to be tested was added. After lapse of 5 minutes, S1P (final concentration: 100 nM) was added, the intracellular calcium ion concentration before and after the addition was measured every 3 seconds (excitation wave length: 340 nm and 380 nm; fluorescent wave length: 500 nm). […]
# anesthetized guinea pig [6] = assay: Inhibition of S1P-induced increase of airway resistance of anesthetized guinea pig in vivo; details: S1P 0.1 mg/mL inhaled; compound intravenously injected after increase of airway resistance
# Procedure: The measurement of guinea pig airway resistance was carried out by the modified Konzett and Rossler method (Naunyn-Schmied. Arch. Exp. Path. Pharmak. 195, 71- ). Male Hartley guinea pigs (5 to 7 weeks-old, 300 to 500 g body weight in use) were anesthetized by pentobarbital (50 mg/kg intraabdominal dosage), and fixed at dorsal position. Then, trachea and jugular were cannulated. Airway was managed by a respirator (5 mL/stroke, 60 strokes/min) and air road was diverged with a T-tube and connected to broncho-spasm-transducer and airway resistance was measured. To guinea pigs, gallamine (1 mg/kg, i.v.) was administered and immobilized. S1P was vaporized and inhaled with supersonic wave type nebulizer for five minutes (Jpn. J. Pharm. 50, 445-466 (1989)). S1P (0.1 mg/mL) was inhaled to the anesthetized guinea pig, and airway resistance was measured. After a increase of strong airway resistance was recognized, compound 1 was intravenously injected.
# [7] = tested on: human airway smooth muscle cells; assay: Cell toxicity assessment using released LDH; type: cell-based; details: released LDH as indicator
structure (smiles),measurement,setting,value
"CCCCCCCCCCCCC/C=C/[C@@H](O)[C@@H](N)COP(=O)(O)O [Compound S1P, (2S, 3R, 4E)-2-amino-3-hydroxyoctadeca-4-enyl-1 phosphate]",increasing effect on airway resistance compared with inhalation of histamine,"anesthetized guinea pig [1]; inhalation 0.01 to 1 mg/mL, converted to number of moles",at the same level
same,increase of airway resistance,anesthetized guinea pig [1],strong increase of airway resistance was observed
same,increase of airway resistance,anesthetized guinea pig [2],Increase of airway resistance was observed
same,increase of airway resistance compared with histamine,anesthetized guinea pig [2],slight compared with that of histamine
same,contraction of guinea pig trachea,[3]; S1P 10 μmol/L,very slow contraction
same,"rate of contraction relative to other constricting drug (LTD4, histamine etc.)",[3]; S1P 10 μmol/L,3 to 5 fold slower
same,time to plateau of contraction,[3]; S1P 10 μmol/L,30 to 60 min
same,DNA synthesis of human airway smooth muscle cells,"[4]; S1P 0.03 μM to 10 μM, BrdU 6 hours",induces DNA synthesis
CCCCCCCCCCCCC/C=C/[C@@H](O)[C@@H](N)CO [sphingosine],increase of airway resistance,anesthetized guinea pig [1],increase of airway resistance was not observed
CC(C)(C)NCC(O)c1ccc(O)c(CO)c1 (stereo not shown) [salbutamol],inhibition of increase of airway resistance induced by S1P,anesthetized guinea pig [5],inhibited only partially
"Cc1nn(C)c2nc(NNC(=O)Nc3c(Cl)cncc3Cl)cc(C(C)C)c12 [Compound 1, N-(1H-1,3-dimethyl-4-isopropylpyrazolo[3,4-b]pyridine-6-yl)amino-N′-(3,5-dichloropyridine-4-yl)urea]",IC50,human EDG-1,> 10 µM
same,IC50,EDG-3,> 10 µM
same,IC50,human EDG-5,0.01 µM
same,inhibition of constriction induced by S1P,[3]; added after contraction by S1P,inhibited constriction induced by S1P
same,inhibition of increase of airway resistance induced by S1P,anesthetized guinea pig [6],inhibited
same,antagonism of S1P-induced BrdU incorporation,"[4]; compound 0.01 μM to 10 μM, S1P 3 μM, 6 hours",antagonized against S1P
same,LDH activity in medium,[7],did not enhancement LDH activity in medium
NCCc1c[nH]cn1 [histamine],increase of airway resistance,anesthetized guinea pig [1],increase of airway resistance
same,increase of airway resistance,anesthetized guinea pig [2],increase
